As a reminder, the IC50 is the concentration at which inhibition is half-maximal.

Molecules are shown by their SMILES. A value given as a limit tells only on which side of the number the result lay.

For data set [1], the target named is T1, ERp72 (PDIA4) (Homo sapiens, UniProt P13667).
T1 sequence (P13667 21-645): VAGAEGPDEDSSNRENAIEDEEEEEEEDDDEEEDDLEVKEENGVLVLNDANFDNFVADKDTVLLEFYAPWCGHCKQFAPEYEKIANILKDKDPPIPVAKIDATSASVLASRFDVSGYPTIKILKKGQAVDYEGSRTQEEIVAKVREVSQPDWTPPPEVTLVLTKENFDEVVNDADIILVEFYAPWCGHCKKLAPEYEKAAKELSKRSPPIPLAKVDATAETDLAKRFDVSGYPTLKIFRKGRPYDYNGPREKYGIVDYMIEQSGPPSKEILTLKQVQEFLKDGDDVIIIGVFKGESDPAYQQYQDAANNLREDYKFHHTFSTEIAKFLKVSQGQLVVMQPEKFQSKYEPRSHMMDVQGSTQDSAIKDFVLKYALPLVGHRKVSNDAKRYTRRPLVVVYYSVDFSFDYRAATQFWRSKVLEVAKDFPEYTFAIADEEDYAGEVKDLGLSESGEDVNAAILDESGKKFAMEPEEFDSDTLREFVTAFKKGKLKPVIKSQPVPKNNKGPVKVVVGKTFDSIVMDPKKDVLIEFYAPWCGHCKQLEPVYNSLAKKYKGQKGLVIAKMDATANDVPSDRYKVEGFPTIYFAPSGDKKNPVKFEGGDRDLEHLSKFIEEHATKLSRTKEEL
Kind of data set: ERp72 reductase assay (Di-E-GSSG). Format: biochemical. The conditions noted are these: human recombinant. The source says: In addition to PDI, ERp57 (PDIA3) and ERp72 (PDIA4) are two other major members of the PDI family in both platelets and A549 cells.[62],[63]

In data set [2] the test system is washed human platelets coincubated with A549 cancer cells. Kind of data set: Tumor cell-induced platelet secretion (PDGF, ATP). Type of data set: cell-based. Here is the method: (a) Washed human platelets were coincubated with A549 cancer cells under the same conditions as described in Figure 4. Secretion of PDGF and ATP were determined with the enzyme-linked immunosorbent assay (ELISA) and bioluminescent assay, respectively. (b) A549 cancer cells were coincubated with washed human platelets at 37 °C and 5% CO2 in a cell culture incubator for 48 h. After washing with PBS, the numbers of viable cancer cells were determined by trypan blue exclusion. Data are mean ± SEM of at least three independent experiments.
Washed human platelets were coincubated with cancer cells under the same conditions as described in the TCIPA assay. After a 25 min incubation in the aggregometer, the samples were centrifuged at 13,000g for 1 min. The concentrations of PDGF-BB and ATP in the supernatants were determined using an ELISA kit (Abcam, Cambridge, UK) and an ATP bioluminescent assay kit (Sigma, MO, USA), respectively.[52]

The test system of data set [3] is breast cancer MDA-MB-231. Kind of data set: Cell viability, resazurin assay, MDA-MB-231. The conditions noted are these: Homo sapiens, MDA-MB-231, 24 h, read-out: MDA-MB-231 IC50. (In general: The colour change of resazurin is a common sign of viable cells or microbes.)
Protocol: (§1) Cells were maintained in a humidified incubator at 37 °C in 5% CO2, and cell viability was determined with the resazurin assay (Cayman Chemical, USA) after the incubation with compounds for indicated concentrations and times or DMSO as control.[72]
For data set [4], the system named is washed human platelets. Put plainly: Collagen-induced platelet aggregation. Type of data set: cell-based. The conditions noted are these: Platelet; washed human platelets, collagen (5 μg/mL). The gist of the method: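 Washed platelets from ACD-anticoagulated blood of healthy donors, stirred at 1200 rpm, 37 °C in a turbidimetric aggregometer. Aggregation triggered by U46619 or collagen, scored as maximal rise in light transmission.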

For data set [5], the system named is washed human platelets coincubated with A549, MDA-MB-231, or RPMI8226 cancer cells. Put plainly: Tumor cell-induced platelet aggregation (TCIPA). Type of data set: cell-based. The conditions noted are these: 2 μM; A549, MDA-MB-231, RPMI8226 cells, in the presence of plasma.
Data set [6] concerns the target platelet surface PDI (Homo sapiens, UniProt P07237). Kind of data set: Cell surface PDI reductase activity on intact human platelets (Di-E-GSSG assay).
Protocol: (§2) In this assay, a nonfluorescent substrate, dieosin glutathione disulfide (Di-E-GSSG), was reduced into a fluorescent product eosin-glutathione (E-GSH) by platelet surface PDI in the presence of 5 μM dithiothreitol (DTT).
Data set [7] deals with purified human recombinant PDI (rPDI) (Homo sapiens, UniProt P07237). Put plainly: Recombinant PDI reductase activity (Di-E-GSSG assay).
Protocol: as §2
The subject of data set [8] is glioma U87. Put plainly: Cell viability, resazurin assay, U87. The conditions noted are these: Homo sapiens, 24 h, read-out: U87 IC50.
Protocol: as §1
Data set [9] in a line: Parallel artificial membrane permeability assay (PAMPA). The conditions noted are these: 50 μM, 25 ℃, 3 h, verapamil = 100%, ranitidine = 0%. Put shortly:
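Donor wells held 50 μM compound (DMSO <1% v/v, diluted from 10 mM stocks) in buffer; filter membrane coated with 2% w/v DOPC in n-dodecane. Sandwich incubated 3 h at 25 ℃, then donor and acceptor drug amounts quantified by UV spectra (220–400 nm) against reference standards.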

Chain of purified human recombinant PDI (rPDI) (P07237 18-508): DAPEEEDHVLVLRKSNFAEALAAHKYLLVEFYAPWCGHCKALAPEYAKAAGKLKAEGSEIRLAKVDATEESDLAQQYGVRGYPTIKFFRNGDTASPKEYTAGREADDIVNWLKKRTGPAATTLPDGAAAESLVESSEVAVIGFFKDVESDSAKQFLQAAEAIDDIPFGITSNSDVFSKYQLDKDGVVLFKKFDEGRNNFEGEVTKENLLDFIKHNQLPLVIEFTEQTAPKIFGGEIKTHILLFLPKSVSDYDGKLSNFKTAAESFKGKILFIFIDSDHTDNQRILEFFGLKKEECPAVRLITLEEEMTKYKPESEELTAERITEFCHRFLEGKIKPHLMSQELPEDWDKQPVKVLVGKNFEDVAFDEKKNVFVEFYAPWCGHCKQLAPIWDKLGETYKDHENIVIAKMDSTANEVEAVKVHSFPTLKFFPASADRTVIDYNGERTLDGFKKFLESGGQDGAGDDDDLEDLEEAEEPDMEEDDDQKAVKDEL
Chain of platelet surface PDI (P07237 18-508): as above

Regarding `CC(=O)OC1O[C@H](CSC2=CC(=O)c3cccc(O)c3C2=O)[C@@H](OC(C)=O)C(OC(C)=O)[C@H]1OC(C)=O` (stereo in doubt) [Compound 18, 2-(1,2,3,4-Tetra-O-acetyl-6-deoxy-6-thio-α-D-glucopyranose)-8-hydroxynaphthalene-1,4-dione], the IC50 is 13700 ± 660 nM in data set [1]; 6960 ± 470 nM in [3]; 560 ± 170 nM in data set [4]; 420 ± 70 nM in data set [6]; 1870 ± 560 nM in data set [7]; more than 20000 nM in [8]. Further, the “tumor cell-induced increase in extracellular PDGF and ATP (platelet secretion)” value in data set [2] is “reduced”. In addition, the “prevention of TCIPA” value in [5] was “significantly prevented TCIPA”. For the same compound, the “Permeability (%)” value in [9] is on record as 10.64%.

For the origin of these results see PMC10945480 (Journal of Medicinal Chemistry, 2024).
